In ChEMBL document CHEMBL3046593, “Studies on the synthesis of some new substituted benzylamino and phenyl-acrylamido-methyl flavone derivatives” (2007):
The source made the active and inactive calls. No cut-off for these calls is given here.

Key:
Format in all cases: functional
Conditions in all cases: for zone of inhibition at 3000 µg/mL: read-out: DIZ
Candida albicans = assay: Antifungal activity against Candida albicans RSKK 628 at 3000 ug/ml after 18 to 24 hr by disk diffusion method
Staphylococcus aureus = assay: Antibacterial activity against Staphylococcus aureus ATCC 250 at 3000 ug/ml after 18 to 24 hr by disk diffusion method
Escherichia coli = assay: Antibacterial activity against Escherichia coli RSKK 313 at 3000 ug/ml after 18 to 24 hr by disk diffusion method

Compound	diameter of the inhibition zone (DIZ) (Candida albicans)	zone of inhibition at 3000 µg/mL (Staphylococcus aureus)	diameter of the inhibition zone (DIZ) (Escherichia coli)	zone of inhibition at 3000 µg/mL (Candida albicans)	zone of inhibition at 3000 µg/mL (Escherichia coli)	diameter of the inhibition zone (DIZ) (Staphylococcus aureus)
O=C(/C=C/c1ccccc1)N(Cc1ccccc1)Cc1cccc(-c2cc(=O)c3ccccc3o2)c1	inactive	10 mm	inactive	–	–	–
O=c1cc(-c2cccc(CNCc3ccc(Cl)cc3)c2)oc2ccccc12	–	25 mm	inactive	15 mm	–	–
Clc1ccc(COC(Cn2ccnc2)c2ccc(Cl)cc2Cl)c(Cl)c1 (stereo not drawn) [MICONAZOLE]	–	–	–	35 mm	–	–
O=c1cc(-c2cccc(CNCc3ccc(Cl)c(Cl)c3)c2)oc2ccccc12	–	16 mm	–	10 mm	12 mm	–
O=c1cc(-c2cccc(CNCc3ccccc3)c2)oc2ccccc12	–	16 mm	–	25 mm	10 mm	–
O=c1cc(-c2cccc(CNCc3ccc(F)cc3)c2)oc2ccccc12	–	15 mm	inactive	20 mm	–	–
O=C(/C=C/c1ccccc1)N(Cc1ccc(Cl)cc1)Cc1cccc(-c2cc(=O)c3ccccc3o2)c1	–	–	–	13 mm	12 mm	inactive
O=C(/C=C/c1ccccc1)N(Cc1cccc(-c2cc(=O)c3ccccc3o2)c1)Cc1ccc(Cl)cc1Cl	–	–	inactive	15 mm	–	inactive
O=C(/C=C/c1ccccc1)N(Cc1cccc(-c2cc(=O)c3ccccc3o2)c1)Cc1ccc(Cl)c(Cl)c1	–	–	inactive	15 mm	–	inactive
O=C(/C=C/c1ccccc1)N(Cc1ccc(F)cc1)Cc1cccc(-c2cc(=O)c3ccccc3o2)c1	inactive	–	inactive	–	–	inactive
CC1(C)S[C@@H]2[C@H](NC(=O)[C@H](N)c3ccccc3)C(=O)N2[C@H]1C(=O)O [AMPICILLIN]	–	30 mm	–	–	20 mm	–
O=c1cc(-c2cccc(CNCc3ccc(Cl)cc3Cl)c2)oc2ccccc12	inactive	10 mm	inactive	–	–	–
